Reference: patent US10336792B2, “Antimicrobial peptide dendrimers” (priority 2014, dated 2019)
Converted amounts (≈) assume the structure as drawn. Read-outs that look alike come from different tables or passages of the source. Positions of bridges follow the written chain, without caps; N, C: chain ends. Non-standard residues stand in square brackets, D forms with d. Residues, ends and D or L forms follow the SMILES beside them. Groups on a side chain read outwards from the residue. Chains are numbered I, II in the order given.

Key:
[1] = test system: Pseudomonas aeruginosa (strain PA01); assay: microbe, parasite or virus in culture; format: cell-based
In short: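 P. aeruginosa PAO1 grown overnight in LB, diluted to OD600 0.001 and mixed with ⅔-step peptide dilutions, then incubated at 37 °C for 18–24 h. After MTT staining, the lowest concentration with no visible growth was read by eye as the MIC.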

[2] = test system: Bacillus subtilis (strain BR151); format: cell-based
In short: (§1)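 Broth microdilution MIC in LB; overnight cultures diluted to OD600 0.001 and mixed 1:1 with ⅔-serially diluted samples (stock 1 mg mL^−1 in H2O), 37° C for 18-24 h. MTT (0.1%) added; MIC read by eye as lowest concentration inhibiting visible growth (yellow).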

[3] = test system: human red blood cells (hRBC); assay: Haemolysis assay, minimal haemolytic concentration (MHC); format: cell-based; details: hRBC in PBS pH 7.4, 4 h, room temperature
Protocol: To determine the minimal haemolytic concentration (MHC) stock solutions of 8 mg/mL of the peptide dendrimers in H2O were prepared and 50 μL were diluted serially by ½ in 50 μL PBS (pH 7.4) in 96-well plate (Cornstar or Nunc, polystyrene, untreated). Human red blood cells (hRBC) were obtained by centrifuging 1.5 mL of whole blood from friendly donors at 3000 rpm for 15 minutes. Plasma was discarded and the pellet was re-suspended in a 15 mL falcon tube up to 5 mL of PBS. The washing was repeated three times and the remaining pellet was re-suspended in 10 mL of PBS at a final hRBC concentration of 5%. The hRBC suspension (50 μL) was added to each well and the plate was incubated at room temperature for 4 hours. Minimal haemolytic concentration (MHC) end points were determined by visual inspection of the wells after the incubation period. Controls on each plate included a blank medium control (50 μl PBS+50 μl of hRBC suspension) and a haemolytic activity control (mQ-deionized water 50 μL+50 μL hRBC suspension).
MIC (minimal inhibitory concentration) and MHC (minimal haemolytic concentration, determined on human red blood cells (hRBC)) values are given in μg/mL. When no detectable haemolytic activity was observed, the last measured concentration was used for calculation of the therapeutic index. TI (therapeutic index)=MHC (μg/ml)/geometric mean of MIC (μg/ml). Larger values indicate greater antimicrobial specificity.

[4] = test system: Escherichia coli (strain DH5α); format: cell-based
In short: as §1

P. aeruginosa PA01 (WT) = format: cell-based, Pseudomonas aeruginosa; details: WT
Protocol: (§2) Antimicrobial activity was assayed against P. aeruginosa PA01 (WT), P. aeruginosa PT1482 (A-), PT1485 (A-B-), PT1149 (A-B-C-algC), PT331 (Z61) (LPS mutants), P. aeruginosa PEJ2.6, PEJ9.1, ZEM1.A, ZEM9.A (clinical isolates from Université de Genève/Centre Médical Universitaire), Burkholderia cenocepacia (B. ceno), Staphylococcus aureus (S. aureus, MRSA strain) and Acinetobacter baumannii (A. baum) (clinical isolates from Université de Genève/Centre Médical Universitaire). To determine the minimal inhibitory concentration (MIC), microdilution broth method was used. A colony of bacteria was grown in MH-medium overnight at 37° C. The samples were prepared as stock solutions of 8 mg mL^−1 in H2O, diluted to the beginning concentration of 32, 64, 128 or 256 μg/mL in 300 μL MH-medium, added to the first well of 96-well microtiterplate (TPP, untreated) and diluted serially by ½. The concentration of the bacteria was quantified by measuring absorbance at 600 nm and diluted to OD600=0.022 in MH-medium. The sample solutions (150 μL) were mixed with 4 μL diluted bacterial suspension with a final inoculation of about of 5×10^5 CFU. The plates were incubated at 37° C. until satisfactory growth (˜18 h). For each test, two columns of the plate were kept for sterility control (SC, broth only) and growth control (GC, broth with bacterial inoculums, no antibiotics). The minimal inhibitory concentration (MIC) was defined as the lowest concentration of the antimicrobial substance (peptide dendrimer) that inhibited visible growth of the tested bacteria with the unaided eye. For microbiological study Polymyxin was used as references.

[5] = test system: P. aeruginosa PEJ2.6, PEJ9.1, ZEM1.A, ZEM9.A (clinical isolates); format: cell-based, Pseudomonas aeruginosa; details: PEJ2.6, PEJ9.1, ZEM1.A, ZEM9.A (clinical isolates)
Protocol: as §2
(§3) Ten of the most promising compounds (FIG. 5) were tested for their efficiency against four clinical isolates of P. aeruginosa (ZEM9.A, ZEM1.A, PEJ2.6, PEJ9.1), one S. aureus (COL, MRSA reference strain) and one A. baumannii strain. For the experiments in Genève the peptide dendrimers and reference compounds (polymyxin) were dissolved in PBS and the assay was carried out in Müller-Hinton (MH) broth with a two-fold dilution.

Acinetobacter baumannii = format: cell-based
Protocol: as §2, §3

[6] = test system: Staphylococcus aureus (COL, MRSA reference strain); format: cell-based; details: COL, reference strain
Protocol: as §2, §3

male wistar rats = assay: In-vivo toxicity study, single i.v. injection; set-up: species or system rat; details: for visible effects and behaviour after injection: 2 mg/kg single i.v. dose into tail vein, two rats; for survival rate: 2 mg/kg single i.v. dose, monitored 2 days
Description: 4-6 weeks old male wistar rats (weight range 200-500 g) were used in toxicity experiments. Rats were obtained from Zentrale Tierställe Bern (Department of Clinical Research from University of Bern) and housed 4 per cage. Each experimental group includes two rats. All procedures, care and handling of the animals were reviewed and approved by the Veterinärdienst of Kanton Bern, Schweiz and execute in collaboration with the group of Prof. Hugues Abriel from Department of Clinical Research from University of Bern.
Rats were anesthetized with 4% isoflurane and 1 L/min oxygen in an induction chamber. When the rats were sleeping they were transferred on a clinical drape and anesthetized with 1-2% isoflurane and 0.8 l/min oxygen via a mask. The tail was warmed up with warm water and disinfected with 70% ethanol. The intravenous (i.v.) injections into the tail vein included a single dose of the AMPD of 2 mg/kg rat in 500 μL PBS. Before injection each rat was weighted individually and the exact dosage was determined. All rats, including control groups with no injection and i.v. injection of 500 μL PBS, were monitored for their survival and behavior for two days.
The compounds MSt-112, a 3rd generation AMPD with KL motive, MSt-181 its D-enantiomer analogue, MSt-242, a the 3rd generation with RL motive, and MSt-114 with Tyr instead of Lys in the 3rd generation were used for in vivo experiments with male wistar rats to assess their toxicity. These compounds were selected due to their high potencies and high MHCs values, which are at least 10 times higher than their activities. Each compound (concentration of 2 mg/kg) was applied to two rats by intravenous injection into the tail vein to observe if the AMPDs are well tolerated or may cause adverse effects. The concentration used was approx. 5-10 times higher than the MICs. […] The behaviour of the rats was normal. […] Therefore it seems that rats tolerate AMPDs very well, without visible site effects or even casualties.

[7] = LB medium, serial 2/3 dilution, 37 °C, 18-24 h

Row | Molecule | MIC P. aeruginosa PAO1 [1, 7] | MHC (minimal haemolytic concentration) [3] | MIC P. aeruginosa PAO1 ([1]; strain) | MIC B. subtilis BR151 ([2]; strain BR151) | MIC E. coli DH5α ([4]; DH5α) | visible effects and behaviour after injection (male wistar rats) | survival rate (male wistar rats) | other results
1 | CC(C)C[C@H](NC(=O)[C@H](CCCCN)NC(=O)[C@H](CCCCNC(=O)[C@H](CC(C)C)NC(=O)[C@H](CCCCN)NC(=O)[C@H](CCCCNC(=O)[C@H](CC(C)C)NC(=O)[C@H](CCCCN)NC(=O)[C@@H](N)CCCCN)NC(=O)[C@H](CC(C)C)NC(=O)[C@H](CCCCN)NC(=O)[C@@H](N)CCCCN)NC(=O)[C@H](CC(C)C)NC(=O)[C@H](CCCCN)NC(=O)[C@H](CCCCNC(=O)[C@H](CC(C)C)NC(=O)[C@H](CCCCN)NC(=O)[C@@H](N)CCCCN)NC(=O)[C@H](CC(C)C)NC(=O)[C@H](CCCCN)NC(=O)[C@@H](N)CCCCN)C(N)=O [MSt-119, (KKL)4(KKL)2(KKL)] (I: H-KKLK([Leu-Lys-Lys])KLKKL-NH2 / II: H-KKLK([Leu-Lys-Lys])KL; amide I:7-II:C) | 3 µg/mL (≈ 1.15 µM) | 677 µg/mL | – | – | – | – | – | MIC B. subtilis BR151 ([2]; LB medium): 20 µg/mL (≈ 7.68 µM)
2 | (LA)8(KLK)4(KLA)2(KKL) [MSt-120] | 14 µg/mL | 584 µg/mL | – | – | – | – | – | MIC E. coli DH5α ([4]; LB medium): considerably less active
3 | CC(C)C[C@H](NC(=O)[C@H](CCCCN)NC(=O)[C@H](CCCCNC(=O)[C@H](CC(C)C)NC(=O)[C@H](CCCCN)NC(=O)[C@H](CCCCNC(=O)[C@H](CC(C)C)NC(=O)[C@@H](N)CCCCN)NC(=O)[C@H](CC(C)C)NC(=O)[C@@H](N)CCCCN)NC(=O)[C@H](CC(C)C)NC(=O)[C@H](CCCCN)NC(=O)[C@H](CCCCNC(=O)[C@H](CC(C)C)NC(=O)[C@@H](N)CCCCN)NC(=O)[C@H](CC(C)C)NC(=O)[C@@H](N)CCCCN)C(N)=O [Compound G2KL] (I: H-KLK([Leu-Lys])KLKKL-NH2 / II: H-KLK([Leu-Lys])KL; amide I:6-II:C; N-terminus assumed) | – | – | – | – | – | – | – | MIC PAO1 (P. aeruginosa PA01 (WT)): >64 µg/mL; MIC P. aeruginosa MDR clinical isolate PEJ2.6 [5]: >64 µg/mL; MIC P. aeruginosa MDR clinical isolate PEJ9.1 [5]: >64 µg/mL; MIC P. aeruginosa MDR clinical isolate ZEM1A [5]: >64 µg/mL; MIC P. aeruginosa MDR clinical isolate ZEM9A [5]: >64 µg/mL; MIC A. baumannii ATCC19606 (Acinetobacter baumannii): >64 µg/mL; MIC S. aureus COL [6]: >64 µg/mL
4 | CC(C)C[C@@H](NC(=O)[C@@H](CCCCN)NC(=O)[C@@H](CCCCNC(=O)[C@@H](CC(C)C)NC(=O)[C@@H](CCCCN)NC(=O)[C@@H](CCCCNC(=O)[C@@H](CC(C)C)NC(=O)[C@@H](CCCCN)NC(=O)[C@@H](CCCCNC(=O)[C@@H](CC(C)C)NC(=O)[C@H](N)CCCCN)NC(=O)[C@@H](CC(C)C)NC(=O)[C@H](N)CCCCN)NC(=O)[C@@H](CC(C)C)NC(=O)[C@@H](CCCCN)NC(=O)[C@@H](CCCCNC(=O)[C@@H](CC(C)C)NC(=O)[C@H](N)CCCCN)NC(=O)[C@@H](CC(C)C)NC(=O)[C@H](N)CCCCN)NC(=O)[C@@H](CC(C)C)NC(=O)[C@@H](CCCCN)NC(=O)[C@@H](CCCCNC(=O)[C@@H](CC(C)C)NC(=O)[C@@H](CCCCN)NC(=O)[C@@H](CCCCNC(=O)[C@@H](CC(C)C)NC(=O)[C@H](N)CCCCN)NC(=O)[C@@H](CC(C)C)NC(=O)[C@H](N)CCCCN)NC(=O)[C@@H](CC(C)C)NC(=O)[C@@H](CCCCN)NC(=O)[C@@H](CCCCNC(=O)[C@@H](CC(C)C)NC(=O)[C@H](N)CCCCN)NC(=O)[C@@H](CC(C)C)NC(=O)[C@H](N)CCCCN)C(N)=O [MSt-181, (kl)8(kkl)4(kkl)2(kkl)] (I: H-[dK][dL][dK]([dL-dK])[dK][dL][dK][dK][dL][dK][dK][dL]-NH2 / II: H-[dK][dL][dK]([dL-dK])[dK][dL][dK][dK][dL] / III: H-[dK][dL][dK]([dL-dK])[dK][dL] / IV: H-[dK][dL][dK]([dL-dK])[dK][dL]; amide I:6-IV:C, I:9-II:C, II:6-III:C) | – | – | 4 µg/mL (≈ 0.882 µM) | 2 µg/mL (≈ 0.441 µM) | 1 µg/mL (≈ 0.221 µM) | slightly bluish extremities which subsided after approx. 5 min | 100% | –
5 | CC(C)C[C@H](NC(=O)[C@H](CCCNC(=N)N)NC(=O)[C@H](CCCCNC(=O)[C@H](CC(C)C)NC(=O)[C@H](CCCNC(=N)N)NC(=O)[C@H](CCCCNC(=O)[C@H](CC(C)C)NC(=O)[C@H](CCCNC(=N)N)NC(=O)[C@H](CCCCNC(=O)[C@H](CC(C)C)NC(=O)[C@@H](N)CCCNC(=N)N)NC(=O)[C@H](CC(C)C)NC(=O)[C@@H](N)CCCNC(=N)N)NC(=O)[C@H](CC(C)C)NC(=O)[C@H](CCCNC(=N)N)NC(=O)[C@H](CCCCNC(=O)[C@H](CC(C)C)NC(=O)[C@@H](N)CCCNC(=N)N)NC(=O)[C@H](CC(C)C)NC(=O)[C@@H](N)CCCNC(=N)N)NC(=O)[C@H](CC(C)C)NC(=O)[C@H](CCCNC(=N)N)NC(=O)[C@H](CCCCNC(=O)[C@H](CC(C)C)NC(=O)[C@H](CCCNC(=N)N)NC(=O)[C@H](CCCCNC(=O)[C@H](CC(C)C)NC(=O)[C@@H](N)CCCNC(=N)N)NC(=O)[C@H](CC(C)C)NC(=O)[C@@H](N)CCCNC(=N)N)NC(=O)[C@H](CC(C)C)NC(=O)[C@H](CCCNC(=N)N)NC(=O)[C@H](CCCCNC(=O)[C@H](CC(C)C)NC(=O)[C@@H](N)CCCNC(=N)N)NC(=O)[C@H](CC(C)C)NC(=O)[C@@H](N)CCCNC(=N)N)C(N)=O [MSt-242, (RL)8(KRL)4(KRL)2(KRL)] (I: H-RLK([Leu-Arg])RLKRLKRL-NH2 / II: H-RLK([Leu-Arg])RLKRL / III: H-RLK([Leu-Arg])RL / IV: H-RLK([Leu-Arg])RL; amide I:6-IV:C, I:9-II:C, II:6-III:C) | – | – | 8 µg/mL (≈ 1.61 µM) | 11 µg/mL (≈ 2.22 µM) | 3 µg/mL (≈ 0.606 µM) | No visible effect | 100% | MIC P. aeruginosa ZEM9.A [5]: > 20 µg/mL; MIC S. aureus (COL, MRSA reference strain) [6]: below 20 μg/mL
